Assay results as given in the NIST ThermoML archive (doi:10.1016/j.jct.2012.05.014).

Experiment: xn = mol fraction of the nth substance listed
Conditions: Fluid (supercritical or subcritical phases), Gravimetric method

CCCCNC(=O)C(=O)NCCCC [N,N'-dibutyloxalamide] + O=C=O
Conditions	mass density [kg/m3]
313 K, 9100 kPa, x1 = 0.0002628	517.19
313 K, 9300 kPa, x1 = 0.0005167	556.08
313 K, 9500 kPa, x1 = 0.0008035	584.52
313 K, 9700 kPa, x1 = 0.001136	606.4
313 K, 9800 kPa, x1 = 0.001295	615.65
323 K, 10300 kPa, x1 = 0.0001531	423.74
323 K, 10600 kPa, x1 = 0.0003084	460.74
323 K, 10900 kPa, x1 = 0.000518	495.1
323 K, 11100 kPa, x1 = 0.0007008	515.81
323 K, 11300 kPa, x1 = 0.000942	534.61
333 K, 11600 kPa, x1 = 0.0003355	405.21
333 K, 12000 kPa, x1 = 0.0005099	436.26
333 K, 12300 kPa, x1 = 0.0007204	458.89
333 K, 12500 kPa, x1 = 0.0009202	473.43
333 K, 12700 kPa, x1 = 0.001115	487.42
343 K, 12100 kPa, x1 = 0.0003508	352.31
343 K, 12500 kPa, x1 = 0.000503	374.67
343 K, 12800 kPa, x1 = 0.000639	391.64
343 K, 13000 kPa, x1 = 0.0007821	402.95
343 K, 13200 kPa, x1 = 0.0009026	414.22
353 K, 12600 kPa, x1 = 0.0003735	322.59
353 K, 13100 kPa, x1 = 0.0005294	344.33
353 K, 13500 kPa, x1 = 0.0006999	362.01
353 K, 13800 kPa, x1 = 0.0008396	375.36
353 K, 14000 kPa, x1 = 0.0009729	384.26

CCCCCCCCNC(=O)C(=O)NCCCCCCCC [N1,N2-dioctyloxalamide] + O=C=O
Conditions	mass density [kg/m3]
313 K, 11700 kPa, x1 = 0.0001449	710.44
313 K, 12000 kPa, x1 = 0.0001679	719.38
313 K, 12500 kPa, x1 = 0.0002108	732.67
313 K, 13000 kPa, x1 = 0.00025	744.41
313 K, 13400 kPa, x1 = 0.000284	752.9
323 K, 12300 kPa, x1 = 0.0001146	604.62
323 K, 12900 kPa, x1 = 0.0001562	633.72
323 K, 13400 kPa, x1 = 0.000212	653.57
323 K, 13900 kPa, x1 = 0.0002628	670.57
323 K, 14400 kPa, x1 = 0.0003178	685.43
333 K, 12900 kPa, x1 = 9.49e-05	500.8
333 K, 13500 kPa, x1 = 0.0001511	537.09
333 K, 13900 kPa, x1 = 0.0002093	558.17
333 K, 14400 kPa, x1 = 0.0002622	581.45
333 K, 14800 kPa, x1 = 0.0003278	597.96
343 K, 13400 kPa, x1 = 9.77e-05	425.4
343 K, 13700 kPa, x1 = 0.0001344	441.9
343 K, 14000 kPa, x1 = 0.0001772	457.97
343 K, 14300 kPa, x1 = 0.0002091	473.49
343 K, 14600 kPa, x1 = 0.0002392	488.4
353 K, 13600 kPa, x1 = 0.0001134	366.46
353 K, 14000 kPa, x1 = 0.0001546	384.26
353 K, 14400 kPa, x1 = 0.0002019	402
353 K, 14700 kPa, x1 = 0.0002432	415.16
353 K, 15000 kPa, x1 = 0.0002821	428.15

CCCCCCNC(=O)C(=O)NCCCCCC [N1,N2-dihexyloxalamide] + O=C=O
Conditions	mass density [kg/m3]
313 K, 9100 kPa, x1 = 0.000112	517.19
313 K, 9500 kPa, x1 = 0.0002518	584.52
313 K, 9800 kPa, x1 = 0.000392	615.65
313 K, 10100 kPa, x1 = 0.0005214	638.82
313 K, 10400 kPa, x1 = 0.0006463	657.22
323 K, 10700 kPa, x1 = 0.0001583	472.58
323 K, 11100 kPa, x1 = 0.0003041	515.81
323 K, 11400 kPa, x1 = 0.0004264	543.31
323 K, 11700 kPa, x1 = 0.0005407	566.85
323 K, 12000 kPa, x1 = 0.0006537	587.07
333 K, 11900 kPa, x1 = 0.0002196	428.55
333 K, 12300 kPa, x1 = 0.0003629	458.89
333 K, 12600 kPa, x1 = 0.0004822	480.5
333 K, 12900 kPa, x1 = 0.0006024	500.8
333 K, 13200 kPa, x1 = 0.0007245	519.67
343 K, 12500 kPa, x1 = 0.000277	374.67
343 K, 12900 kPa, x1 = 0.0003827	397.3
343 K, 13200 kPa, x1 = 0.0004661	414.22
343 K, 13500 kPa, x1 = 0.00056	430.94
343 K, 13700 kPa, x1 = 0.0006445	441.9
353 K, 12800 kPa, x1 = 0.0003133	331.22
353 K, 13300 kPa, x1 = 0.0004305	353.15
353 K, 13700 kPa, x1 = 0.0005336	370.9
353 K, 14000 kPa, x1 = 0.0006155	384.26
353 K, 14300 kPa, x1 = 0.0007224	397.58
